Laboratory results taken from patent US8735437B2, “Imidazolidine carboxamide derivatives as lipase and phospholipase inhibitors” (Sanofi, priority 2007, dated 2014).

Molecular target: T1, endothelial lipase (EL) (Homo sapiens, UniProt Q9Y5X9)
T1 construct: made in house; host or cells: recombinant cell lines (CHO, HEK293); concentrated conditioned medium used as enzyme solution
T1 sequence (Q9Y5X9 21-500): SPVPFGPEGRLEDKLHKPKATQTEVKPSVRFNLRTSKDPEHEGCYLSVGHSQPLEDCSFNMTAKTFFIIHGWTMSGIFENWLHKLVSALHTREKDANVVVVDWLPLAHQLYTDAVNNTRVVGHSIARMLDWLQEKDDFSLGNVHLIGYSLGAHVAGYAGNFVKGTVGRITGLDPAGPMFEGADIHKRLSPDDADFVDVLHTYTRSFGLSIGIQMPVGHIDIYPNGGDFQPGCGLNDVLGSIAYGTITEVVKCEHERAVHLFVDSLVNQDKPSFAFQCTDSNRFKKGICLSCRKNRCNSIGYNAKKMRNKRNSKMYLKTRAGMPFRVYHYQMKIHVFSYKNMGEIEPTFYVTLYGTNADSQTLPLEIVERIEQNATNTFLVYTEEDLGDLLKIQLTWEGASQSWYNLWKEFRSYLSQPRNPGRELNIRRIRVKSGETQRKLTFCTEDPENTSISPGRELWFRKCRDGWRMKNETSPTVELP
Assay: EL inhibition assay (EL activity assay, fluorescent Bodipy-labelled phospholipid substrate)
Type: biochemical
Details: enzyme solution = conditioned medium of recombinant cell lines (CHO, HEK293); 37° C., 90 minutes; pH=7.4
From the text: EL is released as secretory protein in high concentration into cell culture medium (conditioned medium) by recombinant cell lines (CHO, HEK293). This is employed as enzyme solution after concentration.
The phospholipase-specific substrate 1,2-bis(4,4-difluoro-5,7-dimethyl-4-bora-3a,4a-diaza-s-indacene-3-undecanoyl)-sn-glycero-3-phosphocholine, (manufacturer Molecular Probes) is used to characterize the enzymatic activity of endothelial lipase and the effect of inhibitors. Hydrolysis of the A1 ester linkage of this phospholipid by the enzyme liberates a fatty acid labeled with the fluorescent dye Bodipy which can be detected after separation by thin-layer chromatography on an HPTLC plate (silica gel 60, Merck) or directly in the reaction vessel by measuring the fluorescence. The substrate solution is prepared by dissolving 100 μg of 1,2-bis(4,4-difluoro-5,7-dimethyl-4-bora-3a,4a-diaza-s-indacene-3-undecanoyl)-sn-glycero-3-phospho-choline (manufacturer Molecular Probes) in 100 μl of DMSO and taking it up in 2.4 mg of tripalmitin (Sigma) in 393 μl of chloroform which contains 20 mg/ml of DOP-choline (1,2-dioleoyl-sn-glycero-3-phosphocholine). 39.3 μl of this lipid mixture are transferred into a fresh reaction vessel. After evaporation of the solvent, the lipid mixture is dissolved in 4 ml of 200 mM TRIS-HCl, 150 mM sodium chloride, pH=7.4, by sonication twice. The subsequent enzymic reaction takes place at 37° C. for 90 minutes. For this purpose, 20 μl of the substrate solution are incubated with 2 μl of inhibitor of appropriate concentration (dissolved in 10% DMSO, 10% strength DMSO solution is used as control) and 2 μl of enzyme solution (conditioned medium). Then 4 μl of the assay mixture are loaded onto an HPTLC plate (silica gel 60, Merck), and the liberated fluorescent dye is separated for detection with an eluent (diethyl ether:petroleum benzine:acetic acid [78:22:1]). After evaporation of the eluent, the plate is read in a fluorescence scanner. An increased release of the fluorescent dye in the uninhibited reaction is to be observed as a measure of the enzymic activity.
The enzymatic activity is reduced as a function of the inhibitor concentration used, and the inhibitor concentration at which a half-maximum enzymic activity is observed is called IC50.

| IC50 [µM] | SMILES |
| --- | --- |
| 0.059 | CCCCCCCNC(=O)N1C(=O)CN(CCCC)C1=O [Example 21, 3-Butyl-2,5-dioxoimidazolidine-1-heptylcarboxamide] |
| 0.0005 | O=C1CN(Cc2ccccc2)C(=O)N1C(=O)N[C@@H]1CCc2ccccc21 [Example 4, 3-Benzyl-2,5-dioxoimidazolidine-1-((R)-indan-1-yl)carboxamide] |
| 0.147 | Cc1ccccc1CNC(=O)N1C(=O)CN(Cc2ccccc2)C1=O [Example 2, 3-Benzyl-2,5-dioxoimidazolidine-1-(2-methylbenzyl)carboxamide] |
| 0.059 | O=C(NC1CCCc2ccccc21)N1C(=O)C2Cc3ccccc3CN2C1=O (centres unmarked) [Example 28, 1,3-Dioxo-1,5,10,10a-tetrahydroimidazo[1,5-b]isoquinoline-2-(1,2,3,4-tetra-hydronaphthalen-1-yl)carboxamide] |
| 0.143 | O=C1CN(Cc2ccccc2)C(=O)N1C(=O)NCCc1cccs1 [Example 6, 3-Benzyl-2,5-dioxoimidazolidine-1-(2-thiophen-2-ylethyl)carboxamide] |
| 0.143 | Cc1ccccc1CNC(=O)N1C(=O)C2Cc3ccccc3CN2C1=O (centres unmarked) [Example 29, 1,3-Dioxo-1,5,10,10a-tetrahydroimidazo[1,5-b]isoquinoline-2-methylbenzyl-2-carboxamide] |
| 0.008 | O=C1CN(Cc2ccccc2)C(=O)N1C(=O)NC1CCCc2ccccc21 (centres unmarked) [Example 5, 3-Benzyl-2,5-dioxoimidazolidine-1-(1,2,3,4-tetrahydronaphthalen-1-yl)carboxamide] |
| 0.145 | O=C1CN(Cc2ccccc2)C(=O)N1C(=O)N[C@H]1CCc2ccccc21 [Example 3, 3-Benzyl-2,5-dioxoimidazolidine-1-((S)-indan-1-yl)carboxamide] |
| 0.047 | CCCCCCNC(=O)N1C(=O)CN(C)C1=O [Example 8, 3-Methyl-2,5-dioxoimidazolidine-1-hexyl carboxamide] |

| SMILES | IC50 [µM] |
| --- | --- |
| CCCCCCCNC(=O)N1C(=O)CN(Cc2ccccc2)C1=O [Example 7, 3-Benzyl-2,5-dioxoimidazolidine-1-heptylcarboxamide] | 0.083 |
| CCCCCCNC(=O)N1C(=O)N(C)C(C)(C)C1=O [Example 9, 3,4,4-Trimethyl-2,5-dioxoimidazolidine-1-hexylcarboxamide] | 0.037 |
| CCCCCCNC(=O)N1C(=O)C2Cc3ccccc3CN2C1=O (centres unmarked) [Example 24, 1,3-Dioxo-1,5,10,10a-tetrahydroimidazo[1,5-b]isoquinoline-2-hexylcarboxamide] | 0.039 |
| CCCCCCNC(=O)N1C(=O)CN(Cc2ccccc2)C1=O [Example 1, 3-Benzyl-2,5-dioxoimidazolidine-1-hexylcarboxamide] | 0.005 |
| CCCCCCNC(=O)N1C(=O)C2CCCCN2C1=O (centres unmarked) [Example 23, 1,3-Dioxohexahydroimidazo[1,5-a]pyridine-2-hexylcarboxamide] | 0.044 |
